Measurements as given in patent US7981867B2, “Use of des-aspartate-angiotensin I” (priority 2005, dated 2011).
Values joined by “and” are separate entries in the source; they are usually repeats but may differ in a detail not shown here. Equal values may be shown once. Read-outs that look alike come from different tables or passages of the source.

Tests used:
diabetic KKAy mice [1] = assay: Oral glucose tolerance test in diabetic KKAy mice, intraperitoneal treatment; type: in vivo; parameters: Serum glucose level: unit not given here; details: for Serum glucose level: oral glucose tolerance test
Description: (§1) The diabteic KKAy mice were divided into four groups consisting of 6 animals per group. Animals in the control group were intraperitoneally administered 0.1 mL saline. Animals in the second, third, and fourth groups were similarly administered with 100, 200, 400 nmole/kg des-aspartate-angiotensin I, respectively. Treatment with saline and des-aspartate-angiotensin I was carried out daily for 4 weeks. Following this, animals were fasted overnight for 16 hours and oral glucose tolerance test was performed as follows: blood was withdrawn from the orbital sinus for blood glucose determination (time of withdrawal was designated as 0 time), animals were then orally administered glucose (2 g/kg), and blood was withdrawn at 30, 60 and 120 min for blood glucose determination.
as §1, with “diabetic” for “diabteic”, “respectively in 0.1 ml of PBS.” for “respectively.”, “determination. The blood was allowed to clot and blood glucose was measured as serum glucose using a commercial glucose kit from Thermo Electron Corporation, Australia.” for “determination.”

serum insulin = assay: Serum insulin level of diabetic GK rats (ELISA); type: in vivo; details: 600 nmole/kg oral, 8 weeks, serum at 30 min of the oral glucose tolerance test, vs control
Description: Serum from 8 weeks treated animals (as described in EXAMPLE 9) were assayed for insulin concentration by the “Ultra Senstive Rat Insulin ELISA kit” (Crystal Chem. Inc., IL, USA). The values were from serum taken at 30 min of the oral glucose tolerance test.
The diabetic GK rats described in EXAMPLE 9 were similarly treated for another week. At 9 weeks of treatment, animals were fasted overnight and half the animals in each group were intraperitoneally administered with PBS and the other half with insulin (0.5 U/kg). After 30 minutes, the animals were sacrificed by cervical dislocation. Hind limb skeletal muscles were rapidly excised and frozen in liquid nitrogen. Muscle samples were stored at −80° C. until used. The hindlimb muscles were subsequently thawed over an ice pack and plasma membranes were prepared as described by Dombrowaski et al. Thirty μg of protein from the 25% interface of the discontinued sucrose gradient was subjected to SDS-PAGE, transferred to PVDF sheets and incubated with anti-GLUT4 polyclonal primary antibody (1:800), washed and followed by incubation with anti-goat secondary antibody (1:10,000). The bands were detected at 49 kDa. […] As insulin resistance is the hallmark of diabetes, it is concluded that the des-aspartate-angiotensin I exerts marked hypoglycaemic action in diabetic GK rats by overcoming insulin resistance in these animals.

[2] = tested on: Influenza A/Aichi/2/68 virus; type: in vivo, BALB/c mice; details: for Percentage Weight Change of Individual Mouse: i.p. 60 nmole/kg for 7 days from weight loss 15% or greater, mice 1-7 = c8-c14
diabetic KKAy mice [3] = assay: Oral glucose tolerance test in diabetic KKAy mice, oral treatment; type: in vivo; parameters: Serum glucose level: unit not given here; details: for Serum glucose level: oral glucose tolerance test
Description: (§2) A dose-range finder experiment to determine the hypoglycaemic dose for orally administered des-aspartate-angiotensin I was also carried out. In this experiment, the animals in each of the three treatment groups of 7 diabetic KKAy mice were orally administered (by gavage) 200, 400, and 600 nmole/kg/day des-aspartate-angiotensin I in volume of 0.1 mL, respectively. Animals in the control group were similarly administered 0.1 mL water. The treatment period was 4 weeks. Oral glucose tolerance test was carried out as described in Example 5, except that blood was sampled at 0 and 30 min.
as §2, with “In” for “A dose-range finder experiment to determine the hypoglycaemic dose for orally administered des-aspartate-angiotensin I was also carried out. In”, “mL water,” for “mL,”, “EXAMPLE 7,” for “Example 5,”

diabetic GK rats = assay: Oral glucose tolerance test in diabetic GK rats, oral treatment; type: in vivo; details: 400 or 600 nmole/kg oral daily; for hypoglycaemic action (30 min oral glucose tolerance test): 6 weeks of treatment
Description: The experiment was similarly carried as for KKAy mice. Control animals were administered (by gavage) 0.2 mL of water and groups 1 and 2 animals were similarly administered 400 and 600 nmole/kg des-aspartate-angiotensin I in 0.2 mL water, respectively, for a period 8 weeks. Oral glucose tolerance test (determined at 30 min) was carried out after 4 and 6 weeks of treatment. […] Data obtained after 8 week of treatment are given in another figure, FIG. 4.
Diabetic GK rats were divided into three groups, consisting of six animals in each group. Animals in groups 1 and 2 were administered, by gavage, one of the following: 400 or 600 nmole/kg of des-aspartate-angiotensin I in a volume of 0.2 mL water daily for up to 8 weeks. Control animals in group 3 were similarly administered 0.2 mL water. […] Animals were treated for a further 2 weeks and a full oral glucose tolerance test was performed thereafter.

Substance: des-aspartate-angiotensin I (RVYIHPFHL; Angiotensin-1; UniProt P01019 26-34, looked up, fragment) [endogenous angiotensin peptide derived from angiotensin I by a specific aminopeptidase; purchased from Bachem]
- Serum glucose level (diabetic KKAy mice [1]; 100 nmole/kg i.p. daily for 4 weeks, 0 min): 7.9 ± 0.9
- Serum glucose level (diabetic KKAy mice [1]; 100 nmole/kg i.p. daily for 4 weeks, 30 min): 21.2 ± 1.6
- Serum glucose level (diabetic KKAy mice [1]; 100 nmole/kg i.p. daily for 4 weeks, 60 min): 13.4 ± 1.3
- Serum glucose level (diabetic KKAy mice [1]; 100 nmole/kg i.p. daily for 4 weeks, 120 min): 9.9 ± 0.5
- Serum glucose level (diabetic KKAy mice [1]; 200 nmole/kg i.p. daily for 4 weeks, 0 min): 6.9 ± 0.9
- Serum glucose level (diabetic KKAy mice [1]; 200 nmole/kg i.p. daily for 4 weeks, 30 min): 16.0 ± 1.4
- Serum glucose level (diabetic KKAy mice [1]; 200 nmole/kg i.p. daily for 4 weeks, 60 min): 14.5 ± 0.9
- Serum glucose level (diabetic KKAy mice [1]; 200 nmole/kg i.p. daily for 4 weeks, 120 min): 8.7 ± 1.2
- Serum glucose level (diabetic KKAy mice [1]; 400 nmole/kg i.p. daily for 4 weeks, 0 min): 6.5 ± 0.6
- Serum glucose level (diabetic KKAy mice [1]; 400 nmole/kg i.p. daily for 4 weeks, 30 min): 15.4 ± 1.6
- Serum glucose level (diabetic KKAy mice [1]; 400 nmole/kg i.p. daily for 4 weeks, 60 min): 13.0 ± 1.1
- Serum glucose level (diabetic KKAy mice [1]; 400 nmole/kg i.p. daily for 4 weeks, 120 min): 8.8 ± 0.6
- blood glucose level at 30 and 60 min of the oral glucose tolerance test (diabetic KKAy mice [1]; doses of 200 and 400 nmole/kg/day i.p. for 4 weeks, vs control): significantly lowered
- serum level of insulin (serum insulin): not significantly affected
- serum level of insulin (serum insulin; listed as des-aspartate-angiotesnin I): no significant difference
- Percentage Weight Change of Individual Mouse ([2]; post infection day 2): 96.3% and 97.1% and 96.6% and 97.3% and 95.8% and 99.3% and 99.8%
- Percentage Weight Change of Individual Mouse ([2]; post infection day 3): 90.3% and 94.6% and 88.6% and 94.7% and 93.9% and 99.4% and 99.0%
- Percentage Weight Change of Individual Mouse ([2]; post infection day 4): 85.7% and 86.2% and 83.3% and 92.1% and 90.8% and 97.5% and 96.6%
- Percentage Weight Change of Individual Mouse ([2]; post infection day 5): 82.8% and 85.7% and 81.0% and 90.1% and 89.0% and 90.3% and 91.7%
- Percentage Weight Change of Individual Mouse ([2]; post infection day 6): 80.8% and 82.7% and 78.2% and 85.2% and 88.8% and 87.5% and 87.4%
- Percentage Weight Change of Individual Mouse ([2]; post infection day 7): 80.7% and 76.8% and 73.9% and 82.8% and 84.4% and 85.0% and 83.8%
- Percentage Weight Change of Individual Mouse ([2]; post infection day 8): 79.7% and 72.9% and 71.2% and 83.2% and 82.4% and 86.2% and 80.4%
- Percentage Weight Change of Individual Mouse ([2]; post infection day 9): 81.4% and 69.9% and 71.8% and 80.5% and 78.6% and 90.3% and 78.8%
- Percentage Weight Change of Individual Mouse ([2]; post infection day 10): 80.5% and 69.0% and 73.2% and 82.3% and 77.7% and 93.0% and 77.5%
- Percentage Weight Change of Individual Mouse ([2]; post infection day 11): 82.1% and 67.7% and 75.8% and 88.9% and 74.5% and 99.3% and 77.1%
- Percentage Weight Change of Individual Mouse ([2]; post infection day 12): 80.0% and 64.9% and 80.1% and 88.9% and 74.5% and 101.2% and 78.9%
- Percentage Weight Change of Individual Mouse ([2]; post infection day 13): 76.6% and 63.0% and 82.8% and 97.4% and 72.3% and 80.8%
- Percentage Weight Change of Individual Mouse ([2]; post infection day 14): 75.2% and 61.3% and 86.3% and 102.8% and 74.0% and 82.6%
- Percentage Weight Change of Individual Mouse ([2]; post infection day 15): 83.0% and 58.9% and 90.1% and 76.7% and 84.3%
- Percentage Weight Change of Individual Mouse ([2]; post infection day 16): 90.3% and 58.9% and 94.6% and 78.6% and 89.4%
- Percentage Weight Change of Individual Mouse ([2]; post infection day 17): 93.5%
- animals survived and regained their original weight ([2]; i.p. 60 nmole/kg for 7 days, 7 treated animals): Six
- influenza A virus in the lung homogenate of the surviving mice ([2]; i.p. 60 nmole/kg for 7 days, assayed in MDCK cells): No influenza A virus was detected
- Fate of individual mouse (death) ([2]; i.p. 60 nmole/kg for 7 days, treated mouse 4, post infection day 18): died
- Serum glucose level (diabetic KKAy mice [3]; 200 nmole/kg/day oral (gavage) for 4 weeks, 0 min): 8.9 ± 1.0
- Serum glucose level (diabetic KKAy mice [3]; 200 nmole/kg/day oral (gavage) for 4 weeks, 30 min): 37.7 ± 2.6
- Serum glucose level (diabetic KKAy mice [3]; 400 nmole/kg/day oral (gavage) for 4 weeks, 0 min): 9.1 ± 1.6
- Serum glucose level (diabetic KKAy mice [3]; 400 nmole/kg/day oral (gavage) for 4 weeks, 30 min): 26.0 ± 3.6
- Serum glucose level (diabetic KKAy mice [3]; 600 nmole/kg/day oral (gavage) for 4 weeks, 0 min): 8.9 ± 0.7
- Serum glucose level (diabetic KKAy mice [3]; 600 nmole/kg/day oral (gavage) for 4 weeks, 30 min): 17.5 ± 1.9
- hypoglycaemic action (diabetic KKAy mice [3]; oral dose of 600 nmole/kg/day for 4 weeks, KKAy mice): significant hypoglycaemic action
- hypoglycaemic action (30 min oral glucose tolerance test) (diabetic GK rats): significant hypoglycaemic action was detected
- hypoglycaemic action (30 min oral glucose tolerance test) (diabetic GK rats; listed as DAA-1): exerts hypoglycaemic action
- hypoglycaemic action (full oral glucose tolerance test) (diabetic GK rats; 8 weeks of treatment): significantly expressed
